# Data: US10138250B2, “Salt of pyrrolo[2,3-D]pyrimidine compound and novel polymorph of salt” (Crystal Pharmatech Co., Ltd., priority 2014, dated 2018)
# “Also recorded” adds a separate entry of the source. Like-named read-outs stand apart in the source and are kept apart here.
# How the values were obtained:
# [1] = Dynamic Vapor Sorption (DVS) hygroscopicity test with XRPD before and after; assay type: physicochemical; details: for solid form change after hygroscopicity test (XRPD): XRPD before and after DVS 0-95% RH cycle; for Change after DVS: XRPD before and after DVS
# Method: Dynamic Vapor Sorption (DVS) was measured via a SMS (Surface Measurement Systems) DVS Intrinsic. Typical Parameters for DVS test are listed below.
# Gas and flow rate: N2, 200 mL/min
# RH range: 0% RH to 95% RH
# About 10.0 mg of hemi-succinate Form A was analyzed by DVS. The solid form was tested by XRPD before and after DVS.
# About hygroscopicity characterization description and definition of hygroscopicity (Chinese Pharmacopoeia 2010 edition appendix XIXJ Drug hygroscopic test guidelines, test at 25° C.+/−1° C., 80% Relative Humidity)
# About 10 mg of mono-succinate Form I of the present invention and non-hydrate form in patent CN103201275A were analyzed by DVS. The solid was tested by XRPD before and after hygroscopicity test.
# The solid was tested by XRPD before and after hygroscopicity test.
# [2] = Conversion of mono-succinate non-hydrate form to hemi-succinate Form A by stirring in solvents; assay type: physicochemical; details: cell continues 'Form A'
# Method: About 10 mg of the non-hydrate form in patent CN103201275A as starting form was added in different solvents or mixed solvents (v/v), then stirred at 5˜50° C. for about 48 hours.
# [3] = Conversion of mono-succinate non-hydrate form to Form I by stirring in solvents at different temperatures; assay type: physicochemical; details: cell continues 'Form I'
# Method: About 10 mg of the non-hydrate form in patent CN103201275A as starting form was added in different solvents or mixed solvents (v/v), then stirred at 5-50° C. for about 48 hours. Finally, the starting form converted to Form I. Solvents and temperature used in this example is in the following in table 6.
# [4] = data in patent CN103201275A, cited from earlier work
# [5] = Storage stability of crystalline salt forms (XRPD, HPLC purity); assay type: physicochemical; details: 30 days; for Solid Form after storage: XRPD
# Method: Two samples prepared by example 9, example 11 and example 13 were stored for 30 days under 25° C./60% RH and 40° C./75% RH.
Compound,Water absorption at 25° C./95% RH ([1]; DVS) [%],Change after DVS [1],HPLC Purity after storage ([5]; 25° C./60% RH) [%],Solid Form after storage ([5]; 25° C./60% RH),HPLC Purity after storage ([5]; 40° C./75% RH) [%],Solid Form after storage ([5]; 40° C./75% RH),also measured
CN(C)C(=O)c1cc2cnc(Nc3ccc(N4CCNCC4)cn3)nc2n1C1CCCC1.O=C(O)CCC(=O)O,18.3,–,–,–,–,–,"water adsorbed at 25° C./95% RH ([1]; DVS): 18.3%; solid form change after hygroscopicity test (XRPD) [1]: changed; Change after DVS ([1]; listed as non-hydrate form in patent CN103201275A): changed; Final Form ([2]; Acetone:water = 20:1, stirred at 5˜50° C. about 48 hours): hemi-succinate; Final Form ([2]; Ethanol:water = 20:1, stirred at 5˜50° C. about 48 hours): hemi-succinate; Final Form ([2]; Ethyl acetate, stirred at 5˜50° C. about 48 hours): hemi-succinate; Final Form ([2]; Tetrahydrofuran:water = 20:1, stirred at 5˜50° C. about 48 hours): hemi-succinate; Final Form ([3]; 5° C., Ethanol:n-heptane = 4:1, about 48 hours): mono-succinate; Final Form ([3]; 50° C., Acetonitrile:water = 20:1, about 48 hours): mono-succinate; Final Form ([3]; 50° C., THF:Methanol = 20:1, about 48 hours): mono-succinate; Final Form ([3]; RT, Ethanol:n-heptane = 4:1, about 48 hours): mono-succinate; share of non-hydrate form converted to hydrate form ([4]; 25° C./80% RH): 0.52%; share of non-hydrate form converted to hydrate form ([4]; 25° C./90% RH): 7.35%; water adsorbed at 25° C./90% RH ([4]; 25° C./90% RH): 2.0%"
CN(C)C(=O)c1cc2cnc(Nc3ccc(N4CCNCC4)cn3)nc2n1C1CCCC1.O=C(O)CCCCC(=O)O [adipate Form A],0.7,did not change; also recorded: No change,99.1,No Change,98.9,No Change,–
CN(C)C(=O)c1cc2cnc(Nc3ccc(N4CCNCC4)cn3)nc2n1C1CCCC1.O=C(O)CO [glycollate Form A],1.2,did not change; also recorded: No change,99.7,No Change,99.6,No Change,–
CN(C)C(=O)c1cc2cnc(Nc3ccc(N4CCNCC4)cn3)nc2n1C1CCCC1.CN(C)C(=O)c1cc2cnc(Nc3ccc(N4CCNCC4)cn3)nc2n1C1CCCC1.O=C(O)CCC(=O)O [hemi-succinate Form A],–,–,–,–,–,–,"weight gain at 80% RH ([1]; DVS, 25° C., 80% RH): 3.5%; hygroscopicity class ([1]; DVS, 80% RH): slightly hygroscopic (increase in mass is less than 2 percent and equal to or greater than 0.2 percent)"
CN(C)C(=O)c1cc2cnc(Nc3ccc(N4CCNCC4)cn3)nc2n1C1CCCC1.O=C(O)/C=C\C(=O)O [maleate Form A],3.4,did not change; also recorded: No change,99.3,No Change,99.3,No Change,–
CN(C)C(=O)c1cc2cnc(Nc3ccc(N4CCNCC4)cn3)nc2n1C1CCCC1.O=C(O)CCC(=O)O [mono-succinate Form I],–,–,–,–,–,–,"water adsorbed at 25° C./90% RH ([1]; DVS, 25° C./90% RH): 1.7%; water adsorbed at 25° C./95% RH ([1]; DVS, listed as Form I): 4.0%; solid form change after hygroscopicity test (XRPD) ([1]; listed as Form I): did not change"
